The subject of this test is HIV-1 (HIVIIIB) replication in MT2 cell line. As to the kind of experiment: HIV-1 replication in MT2 cell line with and without 30% human serum (viral RT activity in supernatant). It is filed as cell-based. The conditions noted are these: average IC50 if tested more than once. In a few lines: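 Read-out is supernatant reverse transcriptase activity on day 5 post-infection, giving IC50 and IC90. Compounds were titrated in complete medium ± 30% human serum, re-dosed after 3 days, on MT2 cells exposed for 3 h to HIVIIIB at MOI 0.5 then washed.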

Where [1] appears, read: Human immunodeficiency virus 1, MT2 cells, with 30% human serum, read-out: MT2 (HIVIIIB) with HS 30% IC50 range.
Setting [2] is: Human immunodeficiency virus 1, MT2 cells, without human serum, read-out: MT2 (HIVIIIB) IC50 range.

The record followed here is patent US8269026B2, “Lupane derivatives useful for treating HIV” (priority 2008, dated 2012).

Where a name gives a salt, the structure may show the parent alone. Read-outs that look alike come from different tables or passages of the source.

As for `CC(C)C1=C2[C@H]3CC[C@@H]4[C@@]5(C)CC[C@H](OC(=O)CC(C)(C)C(=O)O)C(C)(C)[C@@H]5CC[C@@]4(C)[C@]3(C)CC[C@@]2(N)CC1=O` [15-1, 3β-O-(3′,3′-Dimethylsuccinyl)-17β-amino-21-oxolup-18-ene hydrochloride], the IC50 under setting [1] was below 199 nM and the IC50 under setting [2] was below 199 nM.

On to `CC(C)C1=C2C3CCC4[C@@]5(C)CC[C@H](OC(=O)CC(C)(C)C(=O)O)C(C)(C)C5CC[C@@]4(C)[C@]3(C)CC[C@@]2(NC(=O)N2CC[C@H](N)C2)CC1=O` (stereo partly drawn) [17-43, 3β-O-(3′,3′-Dimethylsuccinyl)-17β-[((S)-3-amino-pyrrolidine-1-carbonyl)-amino]-21-oxolup-18-ene], for which, under setting [1], the IC50 was below 199 nM.

In the case of `CC(C)C1=C2[C@H]3CC[C@@H]4[C@@]5(C)CC[C@H](OC(=O)CC(C)(C)C(=O)O)C(C)(C)[C@@H]5CC[C@@]4(C)[C@]3(C)CC[C@@]2(NC(=O)CN2CCCC2)CC1=O` [19-38, 3β-O-(3′,3′-Dimethylsuccinyl)-17β-(2-pyrrolidin-1-yl-acetamido)-21-oxolup-18-ene], the IC50 under setting [1] is below 199 nM.

Consider `CC(C)C1=C2C3CCC4[C@@]5(C)CC[C@H](OC(=O)CC(C)(C)C(=O)O)C(C)(C)C5CC[C@@]4(C)[C@]3(C)CC[C@@]2(NC(=O)OCC2(N)CC2)CC1=O` (stereo partly drawn) [20-12, 3β-O-(3′,3′-Dimethylsuccinyl)-17β-(1-amino-cyclopropylmethoxycarbonylamino)-21-oxolup-18-ene], for which the concentration for half-maximal inhibition (IC50) under setting [1] is below 199 nM.

Consider `CC(C)C1=C2C3CCC4[C@@]5(C)CC[C@H](OC(=O)CC(C)(C)C(=O)O)C(C)(C)C5CC[C@@]4(C)[C@]3(C)CC[C@@]2(NC(=O)c2cncs2)CC1=O` (stereo partly drawn) [19-28, 3β-O-(3′,3′-Dimethylsuccinyl)-17β-(1,3-thiazole-5-amido)-21-oxolup-18-ene], for which the IC50 under setting [1] is below 199 nM.

As to `Cc1ccccc1C(=O)N[C@@]12CC[C@]3(C)[C@H](CC[C@@H]4[C@@]5(C)CC[C@H](OC(=O)CC(C)(C)C(=O)O)C(C)(C)[C@@H]5CC[C@]43C)C1=C(C(C)C)C(=O)C2` [19-45, 3β-O-(3′,3′-Dimethylsuccinyl)-17β-(2-methylbenzamido)-21-oxolup-18-ene], under setting [1], the IC50 is below 199 nM.

Take `CC(C)C1=C2C3CCC4[C@@]5(C)CC[C@H](OC(=O)CC(C)(C)C(=O)O)C(C)(C)C5CC[C@@]4(C)[C@]3(C)CC[C@@]2(NC(=O)OC2CCS(=O)(=O)CC2)CC1=O` (stereo partly drawn) [20-15, 3β-O-(3′,3′-Dimethylsuccinyl)-17β-(1,1-dioxo-tetrahydro-thiopyran-4-oxycarbonylamino)-21-oxolup-18-ene]: under setting [1], the concentration for half-maximal inhibition (IC50) is below 199 nM.

`CC(C)C1=C2[C@H]3CC[C@@H]4[C@@]5(C)CC[C@H](OC(=O)CC(C)(C)C(=O)O)C(C)(C)[C@@H]5CC[C@@]4(C)[C@]3(C)CC[C@@]2(NC(=O)C2CCNCC2)CC1=O` [19-6, 3β-O-(3′,3′-Dimethylsuccinyl)-17β-(piperidine-4-amido)-21-oxolup-18-ene]: the IC50 under setting [1] was above 1000 nM and the IC50 under setting [2] was below 199 nM.

Turning to `CC(C)C1=C2C3CCC4[C@@]5(C)CC[C@H](OC(=O)CC(C)(C)C(=O)O)C(C)(C)C5CC[C@@]4(C)[C@]3(C)CC[C@@]2(NC(=O)NC2CCCCC2)CC1=O` (stereo partly drawn) [17-7, 3β-O-(3′,3′-Dimethylsuccinyl)-17β-[N′-(cyclohexyl)ureido]-21-oxolup-18-ene], the IC50 under setting [1] is below 199 nM.

Regarding `CC(C)C1=C2[C@H]3CC[C@@H]4[C@@]5(C)CC[C@H](OC(=O)CC(C)(C)C(=O)O)C(C)(C)[C@@H]5CC[C@@]4(C)[C@]3(C)CC[C@@]2(NC(=O)c2cccnc2O)CC1=O` [19-51, 3β-O-(3′,3′-Dimethylsuccinyl)-17β-(2-hydroxypyridin-3-yl)amido-21-oxolup-18-ene], the IC50 under setting [1] is below 199 nM.

As for `CC(C)C1=C2C3CCC4[C@@]5(C)CC[C@H](OC(=O)CC(C)(C)C(=O)O)C(C)(C)C5CC[C@@]4(C)[C@]3(C)CC[C@@]2(NC(=O)c2nnc(-c3ccccc3)o2)CC1=O` (stereo partly drawn) [19-63, 3β-O-(3′,3′-Dimethylsuccinyl)-17β-(5-phenyl-[1,3,4]oxadiazole-2-amido)-21-oxolup-18-ene], under setting [1], the IC50 was below 199 nM.

With `CC(C)C1=C2[C@H]3CC[C@@H]4[C@@]5(C)CC[C@H](OC(=O)CC(C)(C)C(=O)O)C(C)(C)[C@@H]5CC[C@@]4(C)[C@]3(C)CC[C@@]2(NC(=O)c2ccccc2)CC1=O` [19-2, 3β-O-(3′,3% Dimethylsuccinyl)-17β-benzamido-21-oxolup-18-ene], the IC50 is, setting by setting: under setting [1], below 199 nM; under setting [2], below 199 nM.

For `CC(C)C1=C2C3CCC4[C@@]5(C)CC[C@H](OC(=O)CC(C)(C)C(=O)O)C(C)(C)C5CC[C@@]4(C)[C@]3(C)CC[C@@]2(NC(=O)NCC2CCN(C)CC2)CC1=O` (stereo partly drawn) [17-28, 3β-O-(3′,3′-Dimethylsuccinyl)-17β-[N′-(1-methyl-piperidin-4-ylmethyl)-ureido]-21-oxolup-18-ene], the IC50 under setting [1] was above 1000 nM.

As for `CC(C)C1=C2C3CCC4[C@@]5(C)CC[C@H](OC(=O)CC(C)(C)C(=O)O)C(C)(C)C5CC[C@@]4(C)[C@]3(C)CC[C@@]2(NC(=O)c2ccsc2)CC1=O` (stereo partly drawn) [19-78, 3β-O-(3′,3′-Dimethylsuccinyl)-17β-(thiophene-3-amido)-21-oxolup-18-ene], the IC50 under setting [1] is below 199 nM.

As to `CC(C)C1=C2C3CCC4[C@@]5(C)CC[C@H](OC(=O)CC(C)(C)C(=O)O)C(C)(C)C5CC[C@@]4(C)[C@]3(C)CC[C@@]2(NC(=O)NC(C)(C)c2ccccc2)CC1=O` (stereo partly drawn) [17-63, 3β-O-(3′,3′-Dimethylsuccinyl)-17β-[N′-(1-methyl-1-phenyl-ethyl)-ureido]-21-oxolup-18-ene], under setting [1], the IC50 was below 199 nM.

On to `CC(C)C1=C2C3CCC4[C@@]5(C)CC[C@H](OC(=O)CC(C)(C)C(=O)O)C(C)(C)C5CC[C@@]4(C)[C@]3(C)CC[C@@]2(NC(=O)C2CC3CCC(C2)O3)CC1=O` (stereo partly drawn) [19-71, 3β-O-(3′,3′-Dimethylsuccinyl)-17β-(8α-oxa-bicyclo[3.2.1]octane-3-amido)-21-oxolup-18-ene], for which the IC50 (MT2 cells, with 30% human serum, read-out: MT2 (HIVIIIB) with HS 30% IC50 range) was below 199 nM.

In the case of `CC(C)C1=C2[C@H]3CC[C@@H]4[C@@]5(C)CC[C@H](OC(=O)CC(C)(C)C(=O)O)C(C)(C)[C@@H]5CC[C@@]4(C)[C@]3(C)CC[C@@]2(NC(=O)c2ccccc2F)CC1=O` [19-11, 3β-O-(3′,3′-Dimethylsuccinyl)-17β-(2-fluorobenzamido)-21-oxolup-18-ene], the IC50 reads like this: under setting [1], below 199 nM; under setting [2], below 199 nM.

With `CC(C)C1=C2[C@H]3CC[C@@H]4[C@@]5(C)CC[C@H](OC(=O)CC(C)(C)C(=O)O)C(C)(C)[C@@H]5CC[C@@]4(C)[C@]3(C)CC[C@@]2(NC(=O)Nc2ccccc2)CC1=O` [17-3, 3β-O-(3′,3′-Dimethylsuccinyl)-17β-[N′-(phenyl)ureido]-21-oxolup-18-ene], the IC50 runs as follows: under setting [1], below 199 nM; under setting [2], below 199 nM.

For the compound `Cc1cncc(C(=O)N[C@@]23CC[C@]4(C)[C@H](CC[C@@H]5[C@@]6(C)CC[C@H](OC(=O)CC(C)(C)C(=O)O)C(C)(C)[C@@H]6CC[C@]54C)C2=C(C(C)C)C(=O)C3)c1` [19-47, 3β-O-(3′,3′-Dimethylsuccinyl)-17β-(5-methylpyridin-3-yl)amido-21-oxolup-18-ene], the IC50 under setting [1] was below 199 nM.

For orientation: IC50 means the concentration needed to halve the response being measured.
